Columns and labels:
[1] = test system: p38 MAP kinase phosphorylation in Kupffer cells; experiment: LPS-induced p38 MAP kinase phosphorylation in Kupffer cells; format: cell-based, rat; settings: Compound A 100 ng/mL; 5 and 20 min; n=3 replicates; FIG. 2
[2] = test system: MCD diet fatty liver rats given E coli endotoxin (LPS); experiment: Methionine-choline-deficient (MCD) diet rat model with LPS second hit; format: in vivo, Sprague Dawley rats; settings: 6 h after LPS 2 mg/kg IP, n=3, not statistically significant
[3] = test system: Kupffer cells; experiment: LPS-stimulated release of TNF-α in Kupffer cells; format: cell-based, rat; settings: E. coli LPS; supernatant TNF-α at 2, 4, 6 hours; FIG. 1
Description: Kupffer cells were isolated by enzymatic digestion and purified by centrifugal elutriation from normal rats and cultured overnight. They were then stimulated with E. coli LPS either without or with Compound A added to the medium. TNF-α content in the supernatant was measured at 2, 4, and 6 hours.

[4] = test system: STAM model of NASH; experiment: In vivo efficacy study in STAM model of NASH; design: Steatosis score / Inflammation score / Ballooning score: scale not given here; settings: for NAS (NAFLD Activity Score) compared with the Vehicle group, in words: HE-stained liver sections; for NAS (NAFLD Activity Score) compared with the Vehicle group, in words / Fibrosis area (Sirius red-positive area) compared with the Vehicle group: week 9; for Fibrosis area (Sirius red-positive area) compared with the Vehicle group: Sirius red-stained liver sections; for Ballooning score / Inflammation score / NAS (NAFLD activity score) / Steatosis score: mean ± SEM, twice daily from 6 to 9 weeks of age, Telmisartan 10 mg/kg oral, nalmefene/naltrexone 5 mg/kg s.c.
Description: FIG. 3 sets out representative photomicrographs of HE-stained sections of livers from STAM model of NASH. Sections were cut from paraffin blocks of liver tissue prefixed in Bouin's solution and stained with Lillie-Mayer's Hematoxylin and eosin solution.
To visualize collagen deposition, Bouin's-fixed left lateral liver sections were stained using picro-Sirius red solution (Waldeck, Germany). b) For quantitative analysis of fibrosis area, bright field images of Sirius red-stained sections were captured around the central vein using a digital camera (DFC295; Leica, Germany) at 200-fold magnification, and the positive areas in 5 fields/section were measured using ImageJ software (National Institute of Health, USA). Individual values and mean±SEM for each treatment group are presented.
General Procedure NASH was induced in male C57BL/6 mice by a single subcutaneous injection of 200 μg streptozotocin solution 2 days after birth and feeding with high fat diet (HFD, 57 kcal % fat, Cat# HFD32, CLEA Japan, Japan) after 4 weeks of age. The animals were divided into groups of six each and were orally administered vehicle (1% Tween80) at 10 mL/kg or Telmisartan at 10 mg/kg twice daily from 6 to 9 weeks of age. […] The animals were sacrificed at week 9.

[5] = test system: MCD diet fatty liver rats given E coli endotoxin (LPS); experiment: Methionine-choline-deficient (MCD) diet rat model with LPS second hit; format: in vivo, Sprague Dawley rats; settings: for Prevention of liver injury following LPS in fatty liver rats: 0-30 mg/kg oral, FIG. 5; for Serum ALT change, in words: 6 h after LPS, p<0.05
Description: 20 Sprague Dawley rats were administered with Compound A by oral gavage once daily at 0, 5, 10, 20 or 30 mg/kg (4 rats/group) for 4 weeks. All animals were fed a methionine/choline deficient (MCD) diet (from Dyets, Inc) five times per week during the feeding period in order to produce a diet-induced fatty liver. Rats were weighed daily as well as food intake. At the end of four weeks, the rats were administered 2 mg/kg E coli endotoxin (LPS) IP and 6 hours later the rats were euthanized and liver tissue and serum collected. Liver and was harvested at time of death as was blood. Histology samples were also taken.

C=C1CC[C@@]2(O)C3Cc4ccc(O)c5c4C2(CCN3CC2CC2)C1O5 (stereo in doubt) [Compound A, 17-cyclopropylmethyl-4,5α-epoxy-6-methylenemorphinan-3,14-diol]
LPS-induced p38 MAP kinase phosphorylation [1]: reduced | Decrease of elevated serum ALT levels ([2]; 5 mg/kg oral once daily 4 weeks): ~50% | Decrease of elevated serum ALT levels ([2]; 10 mg/kg oral once daily 4 weeks): ~50% | LPS/time-dependent increase in TNF-α released by Kupffer cells [3]: inhibited | Mortality during the treatment period ([4]; 5 mg/kg s.c. twice daily, before week 9): one out of six mice was found dead | NAS (NAFLD Activity Score) compared with the Vehicle group, in words [4]: tended to show decrease | Fibrosis area (Sirius red-positive area) compared with the Vehicle group [4]: tended to shown decrease | Ballooning score [4]: 0.40 ± 0.24 | Inflammation score [4]: 1.80 ± 0.20 | NAS (NAFLD activity score) [4]: 3.00 ± 0.63 | Steatosis score [4]: 0.80 ± 0.49 | Prevention of liver injury following LPS in fatty liver rats [5]: dose-dependent prevention of liver injury | Prevention of liver injury following LPS in fatty liver rats ([5]; listed as Nalmefene): demonstrated efficacy in preventing inflammatory liver damage | Serum ALT change, in words ([5]; 20 mg/kg oral once daily 4 weeks): further decrease that was significant | Serum ALT ([5]; 30 mg/kg oral once daily 4 weeks, 6 h after LPS 2 mg/kg IP): 94.9+/−5.5 U/L | Serum ALT change, in words ([5]; 30 mg/kg oral once daily 4 weeks): further decrease that was significant | Liver histopathology finding ([5]; MCD and Compound A treated rats, FIG. 7): slight periportal chronic inflammation (mild nonspecific chronic hepatitis) | Liver histopathology finding ([5]; MCD+LPS+Compound A treated rats, FIG. 7): slight periportal chronic inflammation | Hepatic fat accumulation (histopathology) ([5]; treated rats compared to control, FIG. 7): prevents hepatic fat accumulation

O=C1CC[C@@]2(O)C3Cc4ccc(O)c5c4C2(CCN3CC2CC2)C1O5 (stereo in doubt) [Compound B, 17-cyclopropylmethyl-4,5α-epoxy-6-oxomorphinan-3,14-diol]
NAS (NAFLD Activity Score) compared with the Vehicle group, in words [4]: significant decreases | Fibrosis area (Sirius red-positive area) compared with the Vehicle group [4]: significantly decreased | Ballooning score [4]: 0.00 ± 0.00 | Inflammation score [4]: 1.67 ± 0.33 | NAS (NAFLD activity score) [4]: 2.17 ± 0.40 | Steatosis score [4]: 0.50 ± 0.22

CCCc1nc2c(C)cc(-c3nc4ccccc4n3C)cc2n1Cc1ccc(-c2ccccc2C(=O)O)cc1 [Telmisartan]
Mean body weight during the treatment period ([4]; 6 to 9 weeks of age): gradually decreased | NAS (NAFLD Activity Score) compared with the Vehicle group, in words [4]: significant decreases | Fibrosis area (Sirius red-positive area) compared with the Vehicle group [4]: significantly decreased | Ballooning score [4]: 1.00 ± 0.26 | Inflammation score [4]: 1.17 ± 0.48 | NAS (NAFLD activity score) [4]: 2.67 ± 0.56 | Steatosis score [4]: 0.50 ± 0.22

Reference: US10045977B2, “Use of nalmefene in non-alcoholic steatohepatitis” (TAIWANJ PHARMACEUTICALS CO., LTD., priority 2016, dated 2018)
